Laboratory results: patent publication US11242508B2, “Methods relating to pluripotent cells” (priority 2014, dated 2022)
Where two headings read alike, the source gives them in different places.

How the values were obtained:
[1] = tested on: Bone Marrow somatic cells; assay: Percent of cells demonstrating pluripotent phenotype after stress treatment; assay type: cell-based, mice; settings: 1 week-old, after 1 week of stress treatment
Excerpt: (§1) Stress alteration of mature somatic cells procured from various adult tissues. To examine whether ACCs could be generated not only mature lymphocytes but also other types of somatic cells, brain, skin, muscle, fat, bone marrow, lung and liver were harvested from Oct4-GFP (GOF) mice^8. Cells were isolated from the tissue samples, dissociated into single cells, and treated with different physical and or chemical stress conditions. The efficiency of the process to alter the cells differed as a function of both the source of cells and the stress condition(s) to which the cells were exposed (FIG. 7A). The ability of stress to alter mature cells to express Oct4, differed depending on the derivation of cells, but stress was able to alter cells to express Oct4 to some degree in mature cells derived from all three germ layers (FIG. 7A). ACC colonies derived from any mature tissue expressed pluripotent markers, E-cadherin, Nanog, PCAM-1 and AP (data not shown), and ES specific marker genes (FIG. 7B). Significant physical and chemical stresses altered mature somatic cells to revert to a stem cell state, despite of the source of tissues and derivation of the germ layers.
(§2) Exposure to external stimuli-stress treatment. To give a mechanical stress to mature cells, pasture pipette were heated and then stretched to create lumens approximately 50 microns in diameters, and then broken. Mature somatic cells were then triturated through these pipettes for 20 min, and cultured for 7 days. To provide a hypoxic stimulus to mature cells, cells were cultured in a 5% oxygen incubator for 3 weeks. An under nutrition stimulus was provided to mature cells, by culturing the cells in a basic culture medium for 3 weeks. To expose the mature cells to a physiological stress, they were treated with low pH (pH5.5) solution, and cultured for 7 days. Also, cells were given more serious damage. To create pores in mature cell membranes, cells were treated with SLO (Streptolysin O).
(§3) SLO-treated cells were incubated in HBSS containing 10 μg/mL SLO at 37° C. for 50 min and then cultured in culture medium without SLO for 7 days. Cells exposed to under-nutrition stress were cultured in basal medium for 2 to 3 weeks. […] Cells exposed to “Ca” stress were cultured in culture medium containing 2 mM CaCl2) for 2 weeks.
(§4) Fluorescence-Activated Cell Sorting and Flow Cytometry. Cells were prepared according to standard protocols and suspended in 0.1% BSA/PBS on ice prior to FACS. PI (BD Biosciences) was used to exclude dead cells. Cells were sorted on a BD FACSAria SORP and analyzed on a BD LSRII with BD FACSDiva Software (BD Biosciences).

Fat somatic cells = assay: as above; assay type: cell-based, mice; settings: 1 week-old, after 1 week of stress treatment
Excerpt: as §1, §2, §3, §4

Fibroblast = assay: as above; assay type: cell-based, mice; settings: 1 week-old, after 1 week of stress treatment
Excerpt: as §1, §2, §3, §4

Lung somatic cells = assay: as above; assay type: cell-based, mice; settings: 1 week-old, after 1 week of stress treatment
Excerpt: as §1, §2, §3, §4

Muscle somatic cells = assay: as above; assay type: cell-based, mice; settings: 1 week-old, after 1 week of stress treatment
Excerpt: as §1, §2, §3, §4

Brain somatic cells = assay type: cell-based, mice; settings: 1 week-old, after 1 week of stress treatment
Protocol: Exposure to external stimuli-stress treatment. To give a mechanical stress to mature cells, pasture pipette were heated and then stretched to create lumens approximately 50 microns in diameters, and then broken. Mature somatic cells were then triturated through these pipettes for 20 min, and cultured for 7 days. To provide a hypoxic stimulus to mature cells, cells were cultured in a 5% oxygen incubator for 3 weeks. An under nutrition stimulus was provided to mature cells, by culturing the cells in a basic culture medium for 3 weeks. To expose the mature cells to a physiological stress, they were treated with low pH (pH5.5) solution, and cultured for 7 days. Also, cells were given more serious damage. To create pores in mature cell membranes, cells were treated with SLO (Streptolysin O). […]
Cells were prepared according to standard protocols and suspended in 0.1% BSA/PBS on ice prior to FACS. […] Cells were sorted on a BD FACSAria SORP and analyzed on a BD LSRII with BD FACSDiva Software (BD Biosciences).

NK1-R [2] = assay type: in vivo, rat; settings: for IC50: read-out: IC50, tactile hyperalgesia
Protocol: (§5) The highly specific cytotoxin SSP-SAP (20 uL, 1 uM) was injected into the intrathecal (i.t.) space of the male rat spinal cord in order to ablate a large majority of the neurokinin-1 receptor (NK1R)-expressing neurons. Two to 3 weeks later the normally robust hyperalgesic responses to injection of capsaicin (10 uL, 0.1%) in the plantar hindpaw, consisting of mechanical hyperalgesia to stimulation by von Frey filaments and thermal hyperalgesia appearing as a shortening of the latency of withdrawal to a radiant heat source, were almost absent. […] It thus appears that STAP stem cells can restore normal function after specific spinal neuronal loss and present a model for a therapeutic approach to spinal cord injury.
(§6) Adult male S-D rats were first handled for 4-5 days to familiarize them with the test arena, to minimize stress-induced analgesia, and to obtain Naïve and initial Baseline behavioral data. Tactile responsiveness was determined by probing the plantar surface of one hindpaw with a 15 g von Frey filament (VFH), 10 times every 3 secs. Baseline sensitivity, with no treatments and no capsaicin equaled ˜1-2 paw withdrawals per 10 probes. Thermal sensitivity was indicated by the latency for paw withdrawal from a radiant heat source (Hargreaves method: cutoff time set at 18 sec.). Baseline latency ˜16 sec. Before any intrathecal injections, the Naïve rats' responses to capsaicin injection into the hindpaw were determined to be: Tactile: 6 withdrawals/10 VFH probes, and Thermal: 6 sec latency.

NK1-R [3] = assay type: in vivo, rat
Protocol: as §5, §6

NK1-R [4] = biological target: T1, NK1-R (Rattus norvegicus, UniProt P14600); assay type: in vivo; settings: naïve rats (and rats that received Blank-SAP followed by stem cells, not shown); 30 uL i.t. injection; read-out: IC50, thermal hyperalgesia
T1 construct: from tissue; host or cells: spinal cord of living adult male Sprague-Dawley rats (in vivo, intrathecal dosing)
T1 sequence (P14600 whole entry): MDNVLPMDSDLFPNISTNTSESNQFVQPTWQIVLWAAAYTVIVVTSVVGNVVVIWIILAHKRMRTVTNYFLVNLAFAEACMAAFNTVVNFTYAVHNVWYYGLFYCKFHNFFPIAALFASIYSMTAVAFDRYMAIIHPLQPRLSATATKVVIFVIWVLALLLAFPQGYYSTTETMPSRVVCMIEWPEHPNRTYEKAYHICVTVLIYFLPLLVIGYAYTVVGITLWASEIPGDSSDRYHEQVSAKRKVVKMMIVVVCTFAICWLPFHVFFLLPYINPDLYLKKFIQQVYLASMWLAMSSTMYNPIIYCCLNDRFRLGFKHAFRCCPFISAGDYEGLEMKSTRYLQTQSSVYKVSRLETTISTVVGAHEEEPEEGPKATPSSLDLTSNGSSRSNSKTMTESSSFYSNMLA
Protocol: as §5, §6

NK-1R = assay type: in vivo, rat
Protocol: as §5
as §6, with “Thermal sensitivity was indicated by the latency for paw withdrawal from a radiant heat source (Hargreaves method: cutoff time set at 18 sec.). Baseline latency ˜16 sec.” left out, “latency. […]” for “latency.”

mature somatic cells = assay: STAP cell generation with low pH solution containing ATP; assay type: cell-based; settings: low pH solution containing ATP versus pH alone
Protocol: When this solution is used in combination with mechanical trituration of mature cells, the results were even more profound. Consequently, described herein is a protocol which incorporates these findings to increase the efficacy of generating STAP cells.
A1. Make a low pH HBSS solution containing ACT as follows and then set aside for use in step A4. […] The pH of this solution is about 3.0.
Place 5 mL of HBSS (with phenol red) [Life Technologies, 14170-161] into a 15 mL tube. Place a clean pH sensor into the HBSS. Titrate in the ACT stock solution, drop by drop, into the HBSS until the desired pH of, e.g., 5.0 is obtained. Mix the solution regularly to ensure that the measurement is accurate.
A4. […] In some embodiments, a volume of 2-3 ml of the cell suspension in a 50 ml tube can be used.

Row | Compound | Percent of cells demonstrating pluripotent phenotype [1] [%] | Percent of cells demonstrating pluripotent phenotype (Fat somatic cells) [%] | Percent of cells demonstrating pluripotent phenotype (Fibroblast) [%] | Percent of cells demonstrating pluripotent phenotype (Lung somatic cells) [%] | Percent of cells demonstrating pluripotent phenotype (Muscle somatic cells) [%] | Percent of cells demonstrating pluripotent phenotype (Brain somatic cells) [%] | also measured
1 | streptolysin O [SLO] | 13.2 | 32.8 | 15.2 | 18.4 | 20.5 | 10.3 | –
2 | COc1cc(CNC(=O)CCCC/C=C/C(C)C)ccc1O [capsaicin] | – | – | – | – | – | – | Tactile response to capsaicin injection into the hindpaw (NK1-R [2]; Naïve rats, before any intrathecal injections, 15 g von Frey filament): 6 withdrawals/10 VFH probes; Thermal response to capsaicin injection into the hindpaw, latency (NK1-R [3]; Naïve rats, before any intrathecal injections, radiant heat, cutoff 18 sec): 6 s
3 | FC(F)(F)c1cc(CO[C@H]2CCCN[C@H]2c2ccccc2)cc(C(F)(F)F)c1 [L-733,060] | – | – | – | – | – | – | IC50 (NK1-R [2]; naïve rats (and rats that received Blank-SAP followed by stem cells, not shown), 30 uL i.t. injection): ~300 µM; IC50 (NK1-R [2]; stem cell-restored rats, i.t. injection): ~30 µM; IC50 (NK1-R [4]): ~300 µM; IC50 (NK1-R [3]; stem cell-restored rats, i.t. injection, read-out: IC50, thermal hyperalgesia): ~5 µM; Enhancement of potency for inhibition of capsaicin hyperalgesia (NK-1R; STAP stem cell restored rats over Naïve rats or rats that received Blank-SAP): 10-60 times; Inhibition of the restored hyperalgesic response (NK-1R; STAP stem cell-restored rats, i.t. injection at 300 uM): fully inhibited
4 | Nc1ncnc2c1ncn2[C@@H]1O[C@H](COP(=O)([O-])OP(=O)([O-])OP(=O)(O)O)[C@@H](O)[C@H]1O.O.[Na+].[Na+] [ATP, Adenosine 5′ Triphosphate Disodium Salt Hydrate] | 12.3 | 79.6 | 25.10 | 9.8 | 68.4 | – | Efficacy of conversion to STAP cells (mature somatic cells): dramatically increased the efficacy of this conversion
5 | [Ca+2].[Cl-].[Cl-] [Ca, CaCl2] | 1.2 | 2.7 | 3.5 | 1.3 | 1.5 | 0.8 | –
